Reference: DBAASP
Converted amounts (≈) assume the structure as drawn.

Assays:
Experiment in all cases: ≥ marks a high value that may be exact or a test limit, other limits are often not marked, values filed in µg/mL are converted to µM
[1] = test system: Klebsiella pneumoniae
[2] = test system: Pseudomonas aeruginosa ATCC 15442
[3] = test system: Escherichia coli ATCC 25922
[4] = test system: Staphylococcus aureus
[5] = test system: Staphylococcus aureus ATCC 25923
[6] = test system: Streptococcus pneumoniae
[7] = test system: Enterobacter cloacae
[8] = test system: Citrobacter sp.
[9] = test system: Acinetobacter baumannii ATCC 15308
[10] = test system: Candida albicans ATCC 24433
[11] = test system: Staphylococcus epidermidis ATCC 12228
[12] = test system: Acinetobacter baumannii ATCC 19606
[13] = test system: Escherichia coli D31
[14] = test system: Bacillus subtilis ATCC 6051
[15] = test system: Staphylococcus aureus ATCC 27660
[16] = test system: Pseudomonas aeruginosa PAO1
[17] = test system: Enterococcus faecalis
[18] = test system: Staphylococcus aureus KCTC 1621
[19] = test system: Enterococcus faecalis VR
[20] = test system: Staphylococcus aureus MR
[21] = test system: Staphylococcus epidermidis KCTC 1917
[22] = test system: Enterococcus faecium
[23] = test system: Bacillus subtilis KCTC 3068
[24] = test system: Pseudomonas aeruginosa KCTC 1637
[25] = test system: Escherichia coli KCTC 1682
[26] = test system: Enterococcus faecium VR
[27] = test system: Salmonella typhimurium KCTC 1926
[28] = test system: Pseudomonas aeruginosa LES400
[29] = test system: Pseudomonas aeruginosa 213
[30] = test system: Candida albicans C627
[31] = test system: Escherichia coli ESBL 63103
[32] = test system: Pseudomonas aeruginosa H103
[33] = test system: Enterococcus faecium mic80
[34] = test system: Staphylococcus aureus C623

Row | MIC [1] | MIC [2] | MIC [3] | MIC [4] | MIC [5] | MIC [6] | MIC [7] | MIC [8] | MIC [9] | MIC [17] | MIC [18] | MIC [19] | MIC [20] | MIC [21] | MIC [22] | MIC [23] | MIC [24] | MIC [25] | MIC [26] | MIC [27] | Structure (SMILES) | other results
1 | > 129 µM | 16.1 µM (≈ 31.2 µg/mL) | 16.1 µM (≈ 31.2 µg/mL) | 16.1 µM (≈ 31.2 µg/mL) | 16.1 µM (≈ 31.2 µg/mL) | 16.1 µM (≈ 31.2 µg/mL) | ≥ 129 µM | ≥ 129 µM | ≥ 129 µM | – | – | – | – | – | – | – | – | – | – | – | CC(C)C[C@H](NC(=O)[C@@H](N)CC(C)C)C(=O)N1CCC[C@H]1C(=O)N[C@@H](Cc1c[nH]c2ccccc12)C(=O)N[C@@H](CCCCN)C(=O)N[C@@H](Cc1c[nH]c2ccccc12)C(=O)N1CCC[C@H]1C(=O)N[C@@H](Cc1c[nH]c2ccccc12)C(=O)N[C@@H](Cc1c[nH]c2ccccc12)C(=O)N[C@@H](CCCCN)C(=O)N[C@@H](Cc1c[nH]c2ccccc12)C(=O)N[C@@H](CCCN=C(N)N)C(=O)N[C@@H](CCCN=C(N)N)C(N)=O [LLPWKWPWWKWRR] | –
2 | – | – | > 100 µM | – | – | – | – | – | – | – | – | – | – | – | – | – | – | – | – | – | CC[C@H](C)[C@H](NC(=O)CNC(=O)[C@@H](NC(=O)[C@H](C)NC(=O)[C@@H](NC(=O)[C@H](CCCCN)NC(=O)[C@@H]1CCCN1C(=O)[C@@H](NC(=O)[C@H](CCSC)NC(=O)[C@H](CO)NC(=O)[C@H](Cc1ccccc1)NC(=O)[C@@H](N)Cc1ccccc1)[C@@H](C)CC)[C@@H](C)CC)[C@@H](C)O)C(=O)N[C@@H](C)C(=O)N[C@@H](CO)C(=O)N[C@@H](CC(C)C)C(=O)N[C@H](C(=O)N[C@@H](CCCCN)C(=O)N[C@@H](CC(=O)O)C(=O)N[C@@H](CC(C)C)C(N)=O)C(C)C [FFSMIPKIATGIASLVKDL] | MIC [10]: ≥ 100 µM; MIC [11]: > 100 µM
3 | – | – | – | – | – | – | – | – | – | – | – | – | – | – | – | – | – | – | – | – | CC(C)C[C@H](NC(=O)[C@H](C)N)C(=O)N[C@@H](Cc1c[nH]c2ccccc12)C(=O)N[C@@H](CCCN=C(N)N)C(=O)N[C@@H](CCCN=C(N)N)C(=O)N[C@@H](CC(C)C)C(=O)N[C@@H](CC(C)C)C(=O)N[C@@H](CCCN=C(N)N)C(=O)N[C@@H](CCCN=C(N)N)C(=O)N[C@@H](CC(C)C)C(=O)N[C@@H](CC(C)C)C(=O)N[C@@H](CCCN=C(N)N)C(=O)N[C@@H](CO)C(=O)N[C@@H](C)C(=O)N[C@@H](CCCN=C(N)N)C(=O)N[C@@H](CCCN=C(N)N)C(=O)N[C@@H](CC(C)C)C(=O)NCC(N)=O [ALWRRLLRRLLRSARRLG] | MIC [12]: 3.75 µM (≈ 8.48 µg/mL); MIC [13]: 1.88 µM (≈ 4.24 µg/mL); MIC [14]: 1.88 µM (≈ 4.24 µg/mL); MIC [15]: 3.75 µM (≈ 8.48 µg/mL); MIC [16]: 7.5 µM (≈ 17 µg/mL)
4 | – | – | – | – | – | – | – | – | – | 30 µM | 30 µM | 30 µM | 30 µM | 30 µM | 30 µM | 30 µM | 30 µM | 30 µM | 30 µM | 30 µM | CC(C)C[C@H](NC(=O)[C@H](CS)NC(=O)[C@H](Cc1cnc[nH]1)NC(=O)[C@H](C)NC(=O)[C@H](C)N)C(=O)N[C@@H](C)C(=O)N[C@@H](CCCCN)C(=O)N[C@@H](CCCN=C(N)N)C(=O)N[C@@H](CCCCN)C(=O)N[C@@H](CCCCN)C(N)=O [AAHCLAKRKK] | –
5 | – | – | – | – | – | – | – | – | – | 30 µM | 15 µM | 30 µM | 15 µM | 15 µM | 30 µM | 7.5 µM | 15 µM | 15 µM | 30 µM | 15 µM | CC(C)C[C@H](NC(=O)[C@H](Cc1ccccc1)NC(=O)[C@H](CC(C)C)NC(=O)[C@H](CS)NC(=O)[C@H](Cc1cnc[nH]1)NC(=O)[C@@H](NC(=O)[C@H](C)N)[C@@H](C)O)C(=O)N[C@@H](CCCCN)C(=O)N[C@@H](CCCCN)C(=O)N[C@@H](CCCN=C(N)N)C(N)=O [ATHCLFLKKR] | –
6 | > 114 µM | ≥ 114 µM | > 114 µM | > 114 µM | > 114 µM | ≥ 114 µM | ≥ 114 µM | ≥ 114 µM | ≥ 114 µM | – | – | – | – | – | – | – | – | – | – | – | CC[C@H](C)[C@H](NC(=O)[C@H](CCSC)NC(=O)[C@H](C)NC(=O)[C@@H]1CCCN1C(=O)[C@@H]1CCCN1C(=O)[C@H](CCCN=C(N)N)NC(=O)[C@H](CCCCN)NC(=O)[C@@H](NC(=O)[C@H](CC(C)C)NC(=O)CNC(=O)CNC(=O)[C@H](CC(C)C)NC(=O)[C@@H](N)Cc1ccccc1)[C@@H](C)CC)C(=O)N[C@H]1CSSC[C@@H](C(=O)O)NC(=O)[C@H](CCCCN)NC(=O)[C@H](CCCCN)NC(=O)[C@H](CCCN=C(N)N)NC(=O)[C@H](C(C)C)NC(=O)[C@H](C)NC1=O [FLGGLIKRPPAMICAVRKKC] | –
7 | > 125 µM | 15.6 µM (≈ 31.2 µg/mL) | 3.91 µM (≈ 7.81 µg/mL) | 3.91 µM (≈ 7.81 µg/mL) | 3.91 µM (≈ 7.81 µg/mL) | 3.91 µM (≈ 7.81 µg/mL) | ≥ 125 µM | ≥ 125 µM | 31.3 µM (≈ 62.5 µg/mL) | – | – | – | – | – | – | – | – | – | – | – | CC[C@H](C)[C@H](NC(=O)[C@H](CC(C)C)NC(=O)CNC(=O)CNC(=O)[C@H](CC(C)C)NC(=O)[C@@H](N)Cc1ccccc1)C(=O)N[C@@H](CCCCN)C(=O)N[C@@H](Cc1c[nH]c2ccccc12)C(=O)N1CCC[C@H]1C(=O)N[C@@H](Cc1c[nH]c2ccccc12)C(=O)N[C@@H](Cc1c[nH]c2ccccc12)C(=O)N1CCC[C@H]1C(=O)N[C@@H](Cc1c[nH]c2ccccc12)C(=O)N[C@@H](CCCN=C(N)N)C(=O)N[C@@H](CCCN=C(N)N)C(N)=O [FLGGLIKWPWWPWRR] | –
8 | – | – | – | – | 5.18 µM (≈ 8 µg/mL) | – | – | – | – | – | – | – | – | – | – | – | – | – | – | – | NCCCC[C@H](N)C(=O)N[C@@H](Cc1c[nH]c2ccccc12)C(=O)N[C@@H](Cc1c[nH]c2ccccc12)C(=O)N[C@@H](CCCN=C(N)N)C(=O)N[C@@H](Cc1c[nH]c2ccccc12)C(=O)N[C@@H](CCCN=C(N)N)C(=O)N[C@@H](CCCN=C(N)N)C(=O)N[C@@H](Cc1c[nH]c2ccccc12)C(=O)N[C@@H](Cc1c[nH]c2ccccc12)C(=O)O [KWWRWRRWW] | MIC [28]: ≥ 41.4 µM; MIC [29]: ≥ 82.8 µM; MIC [30]: 5.18 µM (≈ 8 µg/mL); MIC [31]: ≥ 82.8 µM; MIC [32]: 20.7 µM (≈ 32 µg/mL); MIC [33]: 20.7 µM (≈ 32 µg/mL); MIC [34]: 5.18 µM (≈ 8 µg/mL)
9 | – | – | – | – | 91.4 µM (≈ 128 µg/mL) | – | – | – | – | – | – | – | – | – | – | – | – | – | – | – | CC[C@H](C)[C@H](NC(=O)[C@H](Cc1c[nH]c2ccccc12)NC(=O)[C@H](Cc1c[nH]c2ccccc12)NC(=O)[C@H](CCCN=C(N)N)NC(=O)[C@H](CCCCN)NC(=O)[C@H](Cc1c[nH]c2ccccc12)NC(=O)[C@H](CC(C)C)NC(=O)[C@@H](N)CCCN=C(N)N)C(=O)N[C@@H](CCCN=C(N)N)C(=O)O [RLWKRWWIR] | MIC [28]: ≥ 91.4 µM; MIC [29]: ≥ 91.4 µM; MIC [30]: 11.4 µM (≈ 16 µg/mL); MIC [31]: ≥ 45.7 µM; MIC [32]: ≥ 91.4 µM; MIC [33]: ≥ 45.7 µM; MIC [34]: ≥ 45.7 µM
10 | – | – | – | – | – | – | – | – | – | 30 µM (≈ 32.9 µg/mL) | 30 µM (≈ 32.9 µg/mL) | 30 µM (≈ 32.9 µg/mL) | 30 µM (≈ 32.9 µg/mL) | 30 µM (≈ 32.9 µg/mL) | 30 µM (≈ 32.9 µg/mL) | 30 µM (≈ 32.9 µg/mL) | 30 µM (≈ 32.9 µg/mL) | 30 µM (≈ 32.9 µg/mL) | 30 µM (≈ 32.9 µg/mL) | 30 µM (≈ 32.9 µg/mL) | CC[C@H](C)[C@H](NC(=O)[C@H](CS)NC(=O)[C@H](Cc1cnc[nH]1)NC(=O)[C@H](C)NC(=O)[C@H](C)N)C(=O)N[C@@H](CCC(N)=O)C(=O)N[C@@H](CC(C)C)C(=O)NCC(=O)N[C@@H](CCCCN)C(=O)N[C@@H](CCCN=C(N)N)C(N)=O [AAHCIQLGKR] | –
